Measured values published in publication PMC10891214, “Effects of food and ethnicity on the pharmacokinetics of venadaparib, a next-generation PARP inhibitor, in healthy Korean, Caucasian, and Chinese male subjects” (Investigational New Drugs, 2023).

Assays:
[1] = Safety assessment (adverse events, vital signs, 12-lead ECGs) after a single administration of venadaparib 80 mg; settings: for TEAEs: number of events / TEAEs: number of subjects: Koreans and Caucasians, 80 mg
Method: (§1) Safety was assessed in all subjects who received the study drug at least once throughout the study based on adverse event (AE) monitoring, physical examinations, vital signs, 12-lead electrocardiograms (ECGs), and clinical laboratory tests.
(§2) To support the evaluation of the relationship between concentration and QT/corrected QT (QTc) interval effects in the early stage of the clinical development of venadaparib, triplicate ECG tests were conducted in the middle of the study [22]. A triplicate ECG test was conducted in three Caucasian and five Chinese subjects after the protocol amendment. […] Fridericia’s corrected QT interval (QTcF) was collected, along with the existing ventricular rate, PR interval, QRS duration, QT interval, and QTcB. Triplicate ECGs were measured three times at intervals of 30 s to 2 min at each time point after at least 5 min of resting, and the median value of the three measurements was considered a representative value. QTcF and QTcB were calculated using the following population-derived correction equations: QTcF = QT/RR^0.33 and QTcB = QT/RR^0.5 [22].

[2] = system: patient-derived xenograft; set-up: method as in PMID 36808277; settings: patient-derived xenograft mouse model; cited from earlier work
[3] = in vivo
Method: as §1, §2

[4] = system: PARP; set-up: method as in PMID 36808277, PMID 24162931, PMID 33657415; settings: cited from earlier work
[5] = system: PARP3; set-up: method as in PMID 36808277; settings: cited from earlier work
[6] = system: poly(ADP-ribose) formation; set-up: method as in PMID 36808277, PMID 24162931, PMID 33657415; settings: cited from earlier work
[7] = system: PARP1; set-up: method as in PMID 36808277; settings: cited from earlier work
[8] = set-up: method as in data on file (NCT03317743); settings: ref data on file (NCT03317743), cited from earlier work
[9] = system: cancer cell lines with BRCA mutations; set-up: method as in PMID 36808277; settings: cited from earlier work
[10] = system: PARP2; set-up: method as in PMID 36808277; settings: cited from earlier work

## O=C(c1cc(Cc2n[nH]c(=O)c3ccccc23)ccc1F)N1CC(CNC2CC2)C1 [venadaparib]
[1]; Chinese, fasted state (N = 12)
  Metabolism and nutrition disorders: number of subjects (percentage of subjects): 2 (16.7)
[1]; Korean, fasted state (N = 12)
  Abdominal pain: number of events: 1
  Abdominal pain: number of subjects (percentage of subjects): 1 (8.3)
  Dyspepsia: number of events: 1
  Dyspepsia: number of subjects (percentage of subjects): 1 (8.3)
  Gastrointestinal disorders: number of events: 4
  Gastrointestinal disorders: number of subjects (percentage of subjects): 3 (25.0)
  Gingival pain: number of events: 1
  Gingival pain: number of subjects (percentage of subjects): 1 (8.3)
  Nausea: number of events: 1
  Nausea: number of subjects (percentage of subjects): 1 (8.3)
[1]; Korean, fed state (N = 13)
  Decreased appetite: number of events: 3
  Decreased appetite: number of subjects (percentage of subjects): 3 (23.1)
  Dyspepsia: number of events: 2
  Dyspepsia: number of subjects (percentage of subjects): 1 (7.7)
  Eye disorders: number of events: 3
  Eye disorders: number of subjects (percentage of subjects): 1 (7.7)
  Eye pain: number of events: 1
  Eye pain: number of subjects (percentage of subjects): 1 (7.7)
  Gastrointestinal disorders: number of events: 7
  Gastrointestinal disorders: number of subjects (percentage of subjects): 5 (38.5)
  Hyperaemia: number of events: 1
  Hyperaemia: number of subjects (percentage of subjects): 1 (7.7)
  Lacrimation increased: number of events: 1
  Lacrimation increased: number of subjects (percentage of subjects): 1 (7.7)
  Metabolism and nutrition disorders: number of events: 3
  Metabolism and nutrition disorders: number of subjects (percentage of subjects): 3 (23.1)
  Musculoskeletal and connective tissue disorders: number of events: 1
  Musculoskeletal and connective tissue disorders: number of subjects (percentage of subjects): 1 (7.7)
  Nausea: number of events: 5
  Nausea: number of subjects (percentage of subjects): 5 (38.5)
  Respiratory, thoracic, and mediastinal disorders: number of events: 1
  Respiratory, thoracic, and mediastinal disorders: number of subjects (percentage of subjects): 1 (7.7)
  Rhabdomyolysis: number of events: 1
  Rhabdomyolysis: number of subjects (percentage of subjects): 1 (7.7)
  Rhinorrhoea: number of events: 1
  Rhinorrhoea: number of subjects (percentage of subjects): 1 (7.7)
  Total TEAEs: number of events: 16
  Total TEAEs: number of subjects (percentage of subjects): 6 (46.2)
  Vascular disorders: number of events: 1
  Vascular disorders: number of subjects (percentage of subjects): 1 (7.7)
  Vision blurred: number of events: 1
  Vision blurred: number of subjects (percentage of subjects): 1 (7.7)
[1]; fasted state
  TEAEs: number of events: nine
  TEAEs: number of subjects: seven
[1]; fed state
  TEAEs: number of events: 25
  TEAEs: number of subjects: 13
[2]
  Tumor growth inhibition rate: 131.0–135.2%
[3]
  Infections and infestations: number of events: 1
  Infections and infestations: number of subjects (percentage of subjects): 1 (8.3)
[3]; po
  Oral herpes: number of events: 1
  Oral herpes: number of subjects (percentage of subjects): 1 (8.3)
[4]
  Activity of trapping PARP, relative to talazoparib: comparable
[5]
  IC50 compared with those of olaparib: higher
[6]
  Activity of inhibiting poly(ADP-ribose) formation, relative to talazoparib: comparable
[7]
  IC50 compared with those of olaparib: similar
[8]; Korean patients with advanced solid tumors, 2–240 mg/day
  Mean elimination half-life (t1/2): 7 to 13 h
[8]; dose range 2–240 mg/day, Korean patients
  Safety and tolerability of multiple three-week administrations: safe and well-tolerated
[8]; dose range 2–240 mg/day
  Relationship of systemic exposure to dose: dose-proportional
[9]
  Antitumor potency, fold higher than that of olaparib: 40–440 fold
[10]
  IC50 compared with those of olaparib: similar
